≈ marks a conversion by molar mass, not a printed value. Like-named read-outs stand apart in the source and are kept apart here.
What was measured:
M. bovis NCTC 10131 = test: microbe, parasite or virus in culture; type: cell-based
M. suipneumoniae UCD 1 = test: MIC against mycoplasma in vitro; type: cell-based
Strep. dysgalactiae SPD1 = test: MIC against veterinary bacteria in vitro
Description: (§1) The activity of the compounds of the Examples against various veterinarily important bacteria, was assayed in vitro using two-fold serial dilutions in Diagnostic Sensitivity Test Agar inoculated with 10^4 organisms.

M. hyorhinis ATCC 23234 = test: MIC against mycoplasma in vitro; type: cell-based
M. suipneumoniae HK(2) = test: MIC against mycoplasma in vitro; type: cell-based
B. subtilis ATCC 6633 = test: MIC against veterinary bacteria in vitro
Description: as §1

[1] = system: Staph. aureus 152 (pen. sens); test: MIC against veterinary bacteria in vitro
Description: as §1

E. coli NCTC 10418 [2] = test: MIC against veterinary bacteria in vitro
Description: as §1

[3] = system: Erysipelothrix rhusiopathiae NCTC 8163; test: MIC against veterinary bacteria in vitro
Description: as §1

M. suipneumoniae LABER = test: MIC against mycoplasma in vitro; type: cell-based
E. coli NCTC 10418 [4] = test: MIC against human bacteria in vitro; type: cell-based; conditions: E. coli NCTC 10418, agar with 5% chocolated horse blood, 18 hours, 37° C.
S. typhimurium S18 = test: MIC against veterinary bacteria in vitro
Description: as §1

[5] = system: M. suipneumoniae PW/C/210; test: MIC against mycoplasma in vitro; type: cell-based; conditions: Mesomycoplasma hyopneumoniae, 144 h
M. pneumoniae ATCC 15492 = test: MIC against mycoplasma in vitro; type: cell-based
[6] = system: M. suipneumoniae NCTC 10110; test: MIC against mycoplasma in vitro; type: cell-based
Staph. aureus Oxford = test: MIC against veterinary bacteria in vitro
Description: as §1

M. gallisepticum S6 = test: MIC against mycoplasma in vitro; type: cell-based
Past. multocida PA2 = test: MIC against veterinary bacteria in vitro; conditions: Pasteurella multocida, PA2, 18 h
Description: as §1

Bord. bronchiseptica B09 = test: MIC against veterinary bacteria in vitro
Description: as §1

Past. haemolytica PA5 = test: MIC against veterinary bacteria in vitro
Description: as §1

E. coli E1 = test: MIC against veterinary bacteria in vitro
Description: as §1

Bord. bronchiseptica B08 = test: MIC against veterinary bacteria in vitro
Description: as §1

[7] = Mesomycoplasma hyopneumoniae, UCD1, 144 h
[8] = Streptococcus dysgalactiae, SPD1, 18 h
[9] = Mesomycoplasma hyorhinis, ATCC23234, 144 h
[10] = Mesomycoplasma hyopneumoniae, 144 h
[11] = Bacillus subtilis, ATCC6633, 18 h
[12] = Escherichia coli, NCTC10418, 18 h
[13] = Erysipelothrix rhusiopathiae, NCTC8163, 18 h
[14] = Mesomycoplasma hyopneumoniae, 144 h, M. suipneumoniae LABER, 6 days, 37° C., read-out: MIC
[15] = Escherichia coli, NCTC10418, read-out: MIC
[16] = Salmonella enterica, TYPHIMURIUM, 18 h
[17] = M. suipneumoniae PW/C/210, 6 days, 37° C., read-out: MIC
[18] = Mesomycoplasma hyopneumoniae, NCTC10110, 144 h
[19] = Bordetella bronchiseptica, B09, 18 h
[20] = Mannheimia haemolytica, PA5, 18 h
[21] = Bordetella bronchiseptica, B08, 18 h
[22] = Mycoplasmoides pneumoniae, ATCC15492, 144 h
[23] = Mycoplasmoides gallisepticum, S6, 144 h

Row | SMILES | MIC (M. bovis NCTC 10131; NCTC10131, 144 h) [µg/mL] | MIC (M. suipneumoniae UCD 1; [7]) [µg/mL] | MIC (Strep. dysgalactiae SPD1; [8]) [µg/mL] | MIC (M. hyorhinis ATCC 23234; [9]) [µg/mL] | MIC (M. suipneumoniae HK(2); [10]) [µg/mL] | MIC (B. subtilis ATCC 6633; [11]) [µg/mL] | MIC ([1]; Staphylococcus aureus, 18 h) [µg/mL] | MIC (E. coli NCTC 10418 [2]; [12]) [µg/mL] | MIC [3, 13] [µg/mL] | MIC (M. suipneumoniae LABER; [14]) [µg/mL] | MIC (E. coli NCTC 10418 [4]; [15]) [µg/mL] | MIC (S. typhimurium S18; [16]) [µg/mL] | MIC [5, 17] [µg/mL] | MIC [6, 18] [µg/mL] | MIC (Staph. aureus Oxford; Staphylococcus aureus, 18 h) [µg/mL] | MIC (Past. multocida PA2) [µg/mL] | MIC (Bord. bronchiseptica B09; [19]) [µg/mL] | MIC (Past. haemolytica PA5; [20]) [µg/mL] | MIC (E. coli E1; Escherichia coli, E1, 18 h) [µg/mL] | MIC (Bord. bronchiseptica B08; [21]) [µg/mL] | other results
1 | CSc1cccc(-c2cnc(/C=C(\C)C[C@@H]3OC[C@H](C[C@@H]4O[C@H]4[C@@H](C)[C@H](C)O)[C@@H](O)[C@H]3O)o2)c1 [Example 22, 5-m-Methylthiophenyl-2-(1-normon-2-yl)oxazole A] | 0.05 (≈ 0.102 µM) | 1 (≈ 2.04 µM) | 1.25 (≈ 2.55 µM) | 1 (≈ 2.04 µM) | 1 (≈ 2.04 µM) | 0.625 (≈ 1.28 µM) | 1.25 (≈ 2.55 µM) | > 80 | 80 (≈ 163 µM) | 0.5 (≈ 1.02 µM) | > 128 | > 80 | 0.5 (≈ 1.02 µM) | 1 (≈ 2.04 µM) | 2.5 (≈ 5.11 µM) | 10 (≈ 20.4 µM) | 40 (≈ 81.7 µM) | 80 (≈ 163 µM) | > 80 | > 80 | MIC (M. pneumoniae ATCC 15492; Mycoplasmoides pneumoniae, ATCC15492, 144 h, M. pneumoniae ATCC 15492, 6 days, 37° C., read-out: MIC): 5 µg/mL (≈ 10.2 µM); MIC (M. gallisepticum S6; Mycoplasmoides gallisepticum, 144 h, M. gallisepticum S6, 6 days, 37° C., read-out: MIC): 5 µg/mL (≈ 10.2 µM)
2 | C/C(=C\c1ncc(-c2cccc(S(C)(=O)=O)c2)o1)C[C@@H]1OC[C@H](C[C@@H]2O[C@H]2[C@@H](C)[C@H](C)O)[C@@H](O)[C@H]1O [Example 23, 5-m-Methylsulphonylphenyl-2-(1-normon-2-yl) oxazole A] | 0.025 (≈ 0.0479 µM) | 1 (≈ 1.92 µM) | 1.25 (≈ 2.4 µM) | – | 1 (≈ 1.92 µM) | 1.25 (≈ 2.4 µM) | 2.5 (≈ 4.79 µM) | > 80 | > 80 | 0.5 (≈ 0.959 µM) | > 64 | > 80 | 0.5 (≈ 0.959 µM) | 1 (≈ 1.92 µM) | 10 (≈ 19.2 µM) | 2.5 (≈ 4.79 µM) | 40 (≈ 76.7 µM) | 80 (≈ 153 µM) | > 80 | > 80 | MIC (M. hyorhinis ATCC 23234; Mesomycoplasma hyorhinis, ATCC23234, 144 h, M. hyorhinis ATCC 23234, 6 days, 37° C., read-out: MIC): 0.5 µg/mL (≈ 0.959 µM); MIC (M. pneumoniae ATCC 15492; [22]): 1 µg/mL (≈ 1.92 µM); MIC (M. gallisepticum S6; [23]): 1 µg/mL (≈ 1.92 µM)
3 | C/C(=C\c1ncc(-c2ccccc2[N+](=O)[O-])o1)C[C@@H]1OC[C@H](C[C@@H]2O[C@H]2[C@@H](C)[C@H](C)O)[C@@H](O)[C@H]1O [Example 26, 5-o-Nitrophenyl-2-(1-normon-2-yl)oxazole A] | 0.025 (≈ 0.0512 µM) | 2.5 (≈ 5.12 µM) | 0.625 (≈ 1.28 µM) | 2.5 (≈ 5.12 µM) | – | 0.312 (≈ 0.639 µM) | 2.5 (≈ 5.12 µM) | > 80 | > 80 | – | > 128 | > 80 | – | – | 2.5 (≈ 5.12 µM) | 5 (≈ 10.2 µM) | 20 (≈ 40.9 µM) | – | > 80 | 80 (≈ 164 µM) | MIC (M. suipneumoniae HK(2); Mesomycoplasma hyopneumoniae, 144 h, M. suipneumoniae HK(2), 6 days, 37° C., read-out: MIC): 5 µg/mL (≈ 10.2 µM); MIC (M. suipneumoniae LABER; [10]): 2.5 µg/mL (≈ 5.12 µM); MIC [5]: 1 µg/mL (≈ 2.05 µM); MIC (M. pneumoniae ATCC 15492; [22]): 2.5 µg/mL (≈ 5.12 µM); MIC ([6]; Mesomycoplasma hyopneumoniae, NCTC10110, 144 h, M. suipneumoniae NCTC 10110, 6 days, 37° C., read-out: MIC): 5 µg/mL (≈ 10.2 µM); MIC (M. gallisepticum S6; [23]): 2.5 µg/mL (≈ 5.12 µM)
4 | CC(=Cc1cnc(-c2ccccc2)o1)CC1OCC(CC2OC2C(C)C(C)O)C(O)C1O (stereo not shown) [Example 35, 5-(1-Normon-2-yl)-2-phenyloxazole A] | – | – | – | – | – | – | – | – | – | – | – | – | – | – | – | – | – | – | – | – | MIC (M. bovis NCTC 10131; M. bovis NCTC 10131, 6 days, 37° C.): 2.5 µg/mL (≈ 5.64 µM); MIC (M. suipneumoniae UCD 1; M. suipneumoniae UCD 1, 6 days, 37° C.): > 10 µg/mL; MIC (Strep. dysgalactiae SPD1; Strep. dysgalactiae SPD1, Diagnostic Sensitivity Test Agar, 18 hours): > 80 µg/mL; MIC (M. hyorhinis ATCC 23234; M. hyorhinis ATCC 23234, 6 days, 37° C.): > 10 µg/mL; MIC (M. suipneumoniae HK(2); M. suipneumoniae HK(2), 6 days, 37° C.): > 10 µg/mL; MIC (B. subtilis ATCC 6633; B. subtilis ATCC 6633, Diagnostic Sensitivity Test Agar, 18 hours): > 80 µg/mL; MIC ([1]; Staph. aureus 152 (pen. sens), Diagnostic Sensitivity Test Agar, 18 hours): > 80 µg/mL; MIC (E. coli NCTC 10418 [2]; E. coli NCTC 10418, Diagnostic Sensitivity Test Agar, 18 hours, 37° C.): > 80 µg/mL; MIC ([3]; Erysipelothrix rhusiopathiae NCTC 8163, Diagnostic Sensitivity Test Agar, 18 hours): > 80 µg/mL; MIC (M. suipneumoniae LABER; M. suipneumoniae LABER, 6 days, 37° C.): > 10 µg/mL; MIC (E. coli NCTC 10418 [4]): > 128 µg/mL; MIC (S. typhimurium S18; S. typhimurium S18, Diagnostic Sensitivity Test Agar, 18 hours): > 80 µg/mL; MIC (M. pneumoniae ATCC 15492; M. pneumoniae ATCC 15492, 6 days, 37° C.): > 10 µg/mL; MIC ([6]; M. suipneumoniae NCTC 10110, 6 days, 37° C.): > 10 µg/mL; MIC (Staph. aureus Oxford; Staph. aureus Oxford, Diagnostic Sensitivity Test Agar, 18 hours): > 80 µg/mL; MIC (M. gallisepticum S6; M. gallisepticum S6, 6 days, 37° C.): > 10 µg/mL; MIC (Bord. bronchiseptica B09; Bord. bronchiseptica B09, Diagnostic Sensitivity Test Agar, 18 hours): > 80 µg/mL; MIC (Past. haemolytica PA5; Past. haemolytica PA5, Diagnostic Sensitivity Test Agar, 18 hours): > 80 µg/mL; MIC (E. coli E1; E. coli E1, Diagnostic Sensitivity Test Agar, 18 hours, 37° C.): > 80 µg/mL; MIC (Bord. bronchiseptica B08; Bord. bronchiseptica B08, Diagnostic Sensitivity Test Agar, 18 hours): > 80 µg/mL

Reference: patent publication US5041567A, “Antibacterial monic acid derivatives” (Beecham Group plc, priority 1982, dated 1991)
